Laboratory results published in US20200390100A1, “SUBSTITUTED N-HETEROCYCLYL- AND N-HETEROARYL-TETRAHYDROPYRIMIDINONES AND THE SALTS THEREOF, AND THE USE OF SAME AS HERBICIDAL ACTIVE SUBSTANCES” (Bayer Aktiengesellschaft, priority 2017, published 2020).

What was measured:
Format in all cases: in vivo
Amaranthus retroflexus [1] = test: Pre-emergence herbicidal action, greenhouse, 320 g/ha; settings: application rate 320 g/ha, scored visually after about 3 weeks vs untreated controls
From the text: (§1) Seeds of monocotyledonous and dicotyledonous weed plants and crop plants were placed in plastic or organic planting pots and covered with soil. The compounds of the invention, formulated in the form of wettable powders (WP) or as emulsion concentrates (EC), were then applied to the surface of the covering soil as aqueous suspension or emulsion with addition of 0.5% additive at a water application rate equivalent to […]. After the treatment, the pots were placed in a greenhouse and kept under good growth conditions for the test plants. After about 3 weeks, the effect of the preparations is scored visually in comparison with untreated controls as percentages. For example, 100% activity=the plants have died, 0% activity=like control plants. Tables B1 to B14 below show the effects of selected compounds of the general formula (I) according to Tables I.1 to I.150 on various harmful plants and at an application rate corresponding to 320 g/ha, which were obtained by the experimental procedure mentioned above.

Polygonum convolvulus = test: as above; settings: application rate 320 g/ha, scored visually after about 3 weeks vs untreated controls
From the text: as §1

Setaria viridis = test: as above; settings: application rate 320 g/ha, Table B11
From the text: as §1

Stellaria media [2] = test: as above; settings: application rate 320 g/ha, scored visually after about 3 weeks vs untreated controls
From the text: as §1

Viola tricolor = test: as above; settings: application rate 320 g/ha, Table B8
From the text: as §1

Stellaria media [3] = test: Herbicidal post-emergence action (Part 2), 1280 g/ha; settings: application rate 1280 g/ha, rated visually after about 3 weeks, Table C7
Method: (§2) Seeds of mono- and dicotyledonous weed plants were placed in plastic pots in sandy loam soil (doubly sown with in each case one species of mono- or dicotyledonous weed plants per pot), covered with soil and cultivated in a greenhouse under controlled growth conditions. 2 to 3 weeks after sowing, the test plants were treated at the one-leaf stage. The compounds of the invention, formulated in the form of wettable powders (WP) or as emulsion concentrates (EC), were applied onto the green parts of the plants as aqueous suspension or emulsion with addition of 0.5% additive at a water application rate of 600 liters per hectare (converted). After the test plants had been kept in the greenhouse under optimum growth conditions for about 3 weeks, the activity of the preparations was rated visually in comparison to untreated controls. For example, 100% activity=the plants have died, 0% activity=like control plants. Tables C1 to C7 below show the effects of selected compounds of the general formula (I) according to Tables 1.1 to 1.150 on various harmful plants and at an application rate corresponding to 1280 g/ha, which were obtained by the experimental procedure mentioned above.

Amaranthus retroflexus [4] = test: Herbicidal pre-emergence action (Part 2), 1280 g/ha; settings: application rate 1280 g/ha, scored visually after about 3 weeks, Table D6
From the text: (§3) Seeds of mono- and dicotyledonous weed plants were placed in plastic pots in sandy loam soil (doubly sown with in each case one species of mono- or dicotyledonous weed plants per pot) and covered with soil. The compounds of the invention, formulated in the form of wettable powders (WP) or as emulsion concentrates (EC), were then applied onto the surface of the covering soil as aqueous suspension or emulsion with addition of 0.5% additive at a water application rate of 600 liters per hectare (converted). After the treatment, the pots were placed in a greenhouse and kept under good growth conditions for the test plants. After about 3 weeks, the effect of the preparations was scored visually in comparison with untreated controls as percentages. For example, 100% activity=the plants have died, 0% activity=like control plants. Tables D1 to D8 below show the effects of selected compounds of the general formula (I) according to Tables 1.1 to 1.150 on various harmful plants and at an application rate corresponding to 1280 g/ha, which were obtained by the experimental procedure mentioned above.

Echinochloa crus-galli = test: as above; settings: application rate 1280 g/ha, scored visually after about 3 weeks, Table D1
From the text: as §3

Matricaria inodora [5] = test: as above; settings: application rate 1280 g/ha, scored visually after about 3 weeks, Table D7
From the text: as §3

Stellaria media [6] = test: as above; settings: application rate 1280 g/ha, scored visually after about 3 weeks, Table D8
From the text: as §3

Alopecurus myosuroides = test: Pre-emergence herbicidal action, greenhouse, 320 g/ha; settings: application rate 320 g/ha, scored visually after about 3 weeks vs untreated controls
From the text: as §1

Digitaria sanguinalis = test: as above; settings: application rate 320 g/ha, Table B9
From the text: as §1

Amaranthus retroflexus [7] = test: Herbicidal post-emergence action (Part 2), 1280 g/ha; settings: application rate 1280 g/ha, rated visually after about 3 weeks, Table C5
Method: as §2

Matricaria inodora [8] = test: as above; settings: application rate 1280 g/ha, rated visually after about 3 weeks, Table C6
Method: as §2

Abutilon theophrasti [9] = test: Herbicidal pre-emergence action (Part 2), 1280 g/ha; settings: application rate 1280 g/ha, scored visually after about 3 weeks, Table D5
From the text: as §3

Poa annua = test: as above; settings: application rate 1280 g/ha, scored visually after about 3 weeks, Table D3
From the text: as §3

Matricaria inodora [10] = test: Pre-emergence herbicidal action, greenhouse, 320 g/ha; settings: application rate 320 g/ha, scored visually after about 3 weeks vs untreated controls
From the text: as §1

Pharbitis purpurea = test: as above; settings: application rate 320 g/ha, Table B12
From the text: as §1

Avena fatua = test: as above; settings: application rate 320 g/ha, scored visually after about 3 weeks vs untreated controls
From the text: as §1

Abutilon theophrasti [11] = test: as above; settings: application rate 320 g/ha, scored visually after about 3 weeks vs untreated controls
From the text: as §1

Hordeum murinum = test: as above; settings: application rate 320 g/ha, Table B14
From the text: as §1

SMILES	Amaranthus retroflexus (efficacy in %) (Amaranthus retroflexus [1]) [%]	Polygonum convolvulus (efficacy in %) (Polygonum convolvulus) [%]	Stellaria media (efficacy in %) (Stellaria media [2]) [%]	Viola tricolor (efficacy in %) (Viola tricolor) [%]	Stellaria media (Stellaria media [3]) [%]	Amaranthus retroflexus (Amaranthus retroflexus [4]) [%]	Matricaria inodora (Matricaria inodora [5]) [%]	Stellaria media (Stellaria media [6]) [%]	Amaranthus retroflexus (Amaranthus retroflexus [7]) [%]	Poa Annua (Poa annua) [%]	further results
CCC(=O)OC1CCN(C)C(=O)N1c1cc(C(F)(F)F)c(Br)cn1 (stereo not shown) [I.3-464]	90	90	100	100							Setaria viridis (efficacy in %) (Setaria viridis): 90%
CCCC(=O)OC1CC(C)N(C)C(=O)N1c1cc(C(F)(F)F)ccn1 (stereo not shown) [I.44-449]					90	100	90	100			Echinochloa crus-galli (Echinochloa crus-galli): 100%
CON1CCC(O)N(c2cc(C(C)(C)C)on2)C1=O (stereo not shown) [I.91-162]	90	100									Alopecurus myosuroides (efficacy in %) (Alopecurus myosuroides): 80%; Digitaria sanguinalis (efficacy in %) (Digitaria sanguinalis): 100%
CCC(=O)OC1N(c2cc(C(C)(C)C)on2)C(=O)N(C)CC1(C)C (stereo not shown) [I.63-162]					100	100	90	100	100	100	Matricaria inodora (Matricaria inodora [8]): 100%; Abutilon theophrasti (Abutilon theophrasti [9]): 100%
COCC(C)(C)c1cc(N2C(=O)N(C)CCC2O)no1 (stereo not shown) [I.1-200]			80	80							Matricaria inodora (efficacy in %) (Matricaria inodora [10]): 90%; Pharbitis purpurea (efficacy in %) (Pharbitis purpurea): 100%
CCC(=O)OC1CCN(C)C(=O)N1c1cc(C(F)(F)F)c(Cl)cn1 (stereo not shown) [I.3-451]					100	100	90	100	100	90	Echinochloa crus-galli (Echinochloa crus-galli): 100%
CN1CCC(O)N(c2cc(C(C)(C)F)ncn2)C1=O (stereo not shown) [I.1-503]				100							Avena fatua (efficacy in %) (Avena fatua): 100%; Matricaria inodora (efficacy in %) (Matricaria inodora [10]): 100%
CCCC(=O)OC1CCN(C)C(=O)N1c1cc(C(F)(F)F)c(Cl)cn1 (stereo not shown) [I.4-451]					100	100		100	100		
CCCC(=O)OC1CCN(C)C(=O)N1c1cc(C(F)(F)F)ccn1 (stereo not shown) [I.4-449]					90	100	100	100	100	90	
CCCC(=O)OC1CCN(C)C(=O)N1c1cc(C(C)(C)C)no1 (stereo not shown) [I.4-290]						100	90	100		90	Abutilon theophrasti (Abutilon theophrasti [9]): 100%
CN1CCC(O)N(C2=NOC(C)(C)C2)C1=O (stereo not shown) [I.1-709]		100	100								Alopecurus myosuroides (efficacy in %) (Alopecurus myosuroides): 100%; Digitaria sanguinalis (efficacy in %) (Digitaria sanguinalis): 100%
Cc1c(N2C(=O)N(C)CCC2O)noc1C(C)(C)C (stereo not shown) [I.1-177]	90	100		90							Digitaria sanguinalis (efficacy in %) (Digitaria sanguinalis): 100%; Setaria viridis (efficacy in %) (Setaria viridis): 90%
CC1CC(O)N(c2cc(C(F)(F)F)ccn2)C(=O)N1C (stereo not shown) [I.41-449]	100		100	100							Alopecurus myosuroides (efficacy in %) (Alopecurus myosuroides): 90%; Matricaria inodora (efficacy in %) (Matricaria inodora [10]): 100%
C=CCC(C)(C)c1cc(N2C(=O)N(C)CCC2O)no1 (stereo not shown) [I.1-199]	100	90	100	100							Abutilon theophrasti (efficacy in %) (Abutilon theophrasti [11]): 100%; Alopecurus myosuroides (efficacy in %) (Alopecurus myosuroides): 90%; Hordeum murinum (efficacy in %) (Hordeum murinum): 80%; Matricaria inodora (efficacy in %) (Matricaria inodora [10]): 100%
CCC(=O)OC1CCN(C)C(=O)N1c1cc(C(C)(C)C)no1 (stereo not shown) [I.3-290, 3-(3-tert-Butyl-1,2-oxazol-5-yl)-1-methyl-2-oxohexahydropyrimidin-4-yl Propionate]					100	100	100	100	100	100	Matricaria inodora (Matricaria inodora [8]): 90%; Abutilon theophrasti (Abutilon theophrasti [9]): 100%
CN1CCC(O)N(c2noc(C(C)(C)C)c2F)C1=O (stereo not shown) [I.1-206]	90	90	100	100							Abutilon theophrasti (efficacy in %) (Abutilon theophrasti [11]): 90%; Alopecurus myosuroides (efficacy in %) (Alopecurus myosuroides): 80%; Avena fatua (efficacy in %) (Avena fatua): 80%; Digitaria sanguinalis (efficacy in %) (Digitaria sanguinalis): 100%; Hordeum murinum (efficacy in %) (Hordeum murinum): 80%; Matricaria inodora (efficacy in %) (Matricaria inodora [10]): 100%; Pharbitis purpurea (efficacy in %) (Pharbitis purpurea): 80%; Setaria viridis (efficacy in %) (Setaria viridis): 90%
CN1CCC(O)N(c2noc(C(C)(C)C)c2Br)C1=O (stereo not shown) [I.1-207]	90	100	100	100							Avena fatua (efficacy in %) (Avena fatua): 90%; Digitaria sanguinalis (efficacy in %) (Digitaria sanguinalis): 100%; Pharbitis purpurea (efficacy in %) (Pharbitis purpurea): 100%; Setaria viridis (efficacy in %) (Setaria viridis): 100%
CC(=O)OC1CCN(C)C(=O)N1c1cc(C(F)(F)F)c(Cl)cn1 (stereo not shown) [I.2-451]					100	100	90	100	100		
CC(C)CC(=O)OC1CCN(C)C(=O)N1c1cc(C(F)(F)F)ccn1 (stereo not shown) [I.7-449]						100	100	100	100	90	Matricaria inodora (Matricaria inodora [8]): 90%
